Assay results taken from patent US11608341B2, “Substituted tetrahydropyrazolo[3,4-d]pyrimidines and tetrahydropyrazolo[4,3-d]pyrimidines as C5A receptor modulators” (Idorsia Pharmaceuticals Ltd., priority 2018, dated 2023).

Molecular target: T1, C5AR1 (Homo sapiens, UniProt P21730)
T1 construct: host or cells: CHO-K1
T1 sequence (P21730 1-350): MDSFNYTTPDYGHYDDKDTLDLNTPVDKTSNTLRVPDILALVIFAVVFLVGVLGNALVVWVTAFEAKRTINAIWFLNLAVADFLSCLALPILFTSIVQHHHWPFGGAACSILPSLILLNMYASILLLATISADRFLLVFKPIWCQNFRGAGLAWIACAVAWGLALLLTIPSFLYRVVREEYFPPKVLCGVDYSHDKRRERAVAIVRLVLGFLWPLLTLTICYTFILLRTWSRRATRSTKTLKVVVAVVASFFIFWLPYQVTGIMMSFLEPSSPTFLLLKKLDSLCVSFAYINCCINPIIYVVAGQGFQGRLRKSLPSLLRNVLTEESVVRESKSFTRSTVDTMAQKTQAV
Assay: In vitro assay: antagonism of C5a-induced beta-arrestin recruitment (PathHunter) in CHO-K1 C5AR1 beta-arrestin cell line
Type: cell-based
Conditions: antagonistic activity, 1-10 nM C5a agonist, geometric mean where several measurements, read-out: C5aR IC50
Outline: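 Antagonist or DMSO added first, then C5a (1-10 nM, added at 6-fold end concentration), 1.5 h at 37 °C. PathHunter detection reagent was added for 45 min at RT before plate reading. IC50s come from antagonist serial dilutions in nmol/l and are geometric means of several measurements.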

SMILES	IC50 [nM]
Cc1cccc(F)c1N1CCC(N2Cc3cn(C)nc3N(C(C)c3ccccc3C(F)(F)F)C2=O)CC1 (single isomer, unassigned) [Example 246]	21
Cc1cccc(F)c1N1CCC(N2Cc3c(ncn3C)N(Cc3ccccc3C(F)(F)F)C2=O)CC1 [Example 16]	74
Cc1cccc(F)c1N1CCC(N2Cc3cn(CCN)nc3N(Cc3ccccc3C(F)(F)F)C2=O)CC1 [Example 26]	173
Cc1cccc(C)c1N1CCC(N2Cc3cn(C)nc3N(Cc3ccccc3C(F)(F)F)C2=O)CC1 [Example 47]	19
Cc1cccc(F)c1N1CCC(N2Cc3c(cnn3CC3(C)CC3)N(Cc3ccccc3C(F)(F)F)C2=O)CC1 [Example 181]	50
C=C(C)n1cc2c(n1)CN(C1CCN(c3c(C)cccc3F)CC1)C(=O)N2Cc1ccccc1C(F)(F)F [Example 192]	4
CC1c2cn(C3CC3)nc2N(Cc2ccccc2C(F)(F)F)C(=O)N1C1CCN(c2c(F)cccc2C(F)F)CC1 (single isomer, unassigned) [Example 312]	72
COc1nccc(C(F)(F)F)c1N1CCC(N2C(=O)N(Cc3ccccc3C(F)(F)F)c3nn(C)cc3C2C)CC1 (single isomer, unassigned) [Example 363]	97
Cc1cccc(F)c1N1CCC(N2Cc3cn(CC(C)C)nc3N(Cc3ccccc3C(F)(F)F)C2=O)CC1 [Example 155]	25
Cc1nc2c(s1)N(Cc1ccccc1C(F)(F)F)C(=O)N(C1CCN(c3c(C)cccc3F)CC1)C2 [Example 90]	153
Cc1cccc(F)c1N1CCC(N2C(=O)N(Cc3ccccc3C3CC3)c3nn(C4CC4)cc3C2C)CC1 (single isomer, unassigned) [Example 339]	12
CC1c2cn(C)nc2N(Cc2ccccc2C2CC2)C(=O)N1C1CCN(c2c(F)cccc2Cl)CC1 (single isomer, unassigned) [Example 321]	196
Cc1cccc(F)c1N1CCC(N2Cc3cn(C4CNC4)nc3N(Cc3ccccc3C(F)(F)F)C2=O)CC1 [Example 92]	428
CC1c2c[nH]nc2N(Cc2ccccc2C(F)(F)F)C(=O)N1C1CCN(c2c(F)cccc2Cl)CC1 (single isomer, unassigned) [Example 351]	784
Cc1cccc(F)c1N1CCC(N2Cc3cn(C4CN(C(=O)OC5COC5)C4)nc3N(Cc3ccccc3C(F)(F)F)C2=O)CC1 [Example 139]	18
Cc1cccc(F)c1N1CCC(N2Cc3cn(C(C)C(N)=O)nc3N(Cc3ccccc3C(F)(F)F)C2=O)CC1 (centres unmarked) [Example 75]	171
COCCN(C)CCn1cc2c(n1)N(Cc1ccccc1C(F)(F)F)C(=O)N(C1CCN(c3c(C)cccc3F)CC1)C2 [Example 74]	26
Cc1cccc(F)c1N1CCC(N2Cc3nn(C(C)(C)C)cc3N(Cc3ccccc3C(F)(F)F)C2=O)CC1 [Example 183]	22
Cc1cccc(F)c1N1CCC(N2Cc3cn(C(C)(C)C#N)nc3N(Cc3ccccc3C(F)(F)F)C2=O)CC1 [Example 87]	12
Cn1cc2c(n1)N(Cc1ccccc1C1CC1)C(=O)N(C1CCN(c3c(F)cccc3OC(F)(F)F)CC1)C2 [Example 281]	17
Cc1cccc(F)c1N1CCC(N2Cc3nn(CC(C)(C)F)cc3N(Cc3ccccc3C(F)(F)F)C2=O)CC1 [Example 176]	16
Cc1cccc(F)c1N1CCC(N2Cc3nn(C)nc3N(Cc3ncccc3C(F)(F)F)C2=O)CC1 [Example 128]	15
Cc1cccc(F)c1N1CCC(N2Cc3cn(C)nc3N(Cc3ccccc3C(F)(F)F)C2=O)C1 (centres unmarked) [Example 44]	35
Cc1cccc(C)c1N1CCC(N2Cc3cn(C)nc3N(Cc3ccccc3C(F)(F)F)C2=O)C1 (single isomer, unassigned) [Example 57]	19
Cc1cccc(F)c1N1CCC(N2Cc3cn(CC(O)CO)nc3N(Cc3ccccc3C(F)(F)F)C2=O)CC1 (centres unmarked) [Example 40]	27
COc1nccc(C(F)(F)F)c1N1CCC(N2C(=O)N(Cc3ccccc3C3CC3)c3nn(C)cc3C2C)CC1 (single isomer, unassigned) [Example 374]	8
